Reference: ChEMBL document CHEMBL1201862, “PubChem BioAssay data set” (2004)
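Method: 48-hour compound exposure of cells in 96-well plates, five concentrations, linear interpolation of endpoints. GI50: concentration for 50% inhibition of growth.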 Active and inactive are the calls of the source. No stated cut-off is given here; in the data, active = GI50 up to about 1.1 µM and inactive = higher.

How the values were obtained:
Assay in all cases: inhibition of tumour cell growth, NCI panel, 48 h
IGROV-1 = test system: IGROV-1
ACHN = test system: ACHN
SK-MEL-2 = test system: SK-MEL-2
RXF 393 = test system: RXF 393
SN12C = test system: SN12C
LXFL 529 = test system: LXFL 529
SF-539 = test system: SF-539
HCC 2998 = test system: HCC 2998
Malme-3M = test system: Malme-3M
TK-10 = test system: TK-10
HCT-116 = test system: HCT-116
U-251 = test system: U-251
NCI-H226 = test system: NCI-H226
UO-31 = test system: UO-31
786-0 = test system: 786-0
UACC-62 = test system: UACC-62
A498 = test system: A498
SK-MEL-5 = test system: SK-MEL-5
SF-268 = test system: SF-268
Hs-578T = test system: Hs-578T

Measured: GI50

CN(C)NC(=S)NC12CC3CC(CC(C3)C1)C2
inactive: IGROV-1 > 100 µM | ACHN > 100 µM | SK-MEL-2 > 100 µM | RXF 393 > 100 µM | SN12C > 100 µM | LXFL 529 > 100 µM | SF-539 > 100 µM | HCC 2998 > 100 µM | Malme-3M > 100 µM | TK-10 > 100 µM | HCT-116 > 100 µM | U-251 > 100 µM | NCI-H226 > 100 µM | UO-31 > 100 µM | 786-0 > 100 µM | UACC-62 > 100 µM | A498 > 100 µM | SK-MEL-5 > 100 µM | SF-268 > 100 µM

O=C1CCCc2c(O)ccc(O)c21
inactive: IGROV-1 > 100 µM | ACHN > 100 µM | SK-MEL-2 > 100 µM | RXF 393 > 100 µM | SN12C > 100 µM | LXFL 529 44 µM | SF-539 > 100 µM | HCC 2998 > 100 µM | Malme-3M > 100 µM | TK-10 > 100 µM | HCT-116 > 100 µM | U-251 > 100 µM | NCI-H226 > 100 µM | UO-31 > 100 µM | 786-0 > 100 µM | UACC-62 > 100 µM | A498 > 100 µM | SK-MEL-5 > 100 µM | SF-268 48.5 µM

COc1cccc(C=O)c1[O-].COc1cccc(C=O)c1[O-].[Zn+2]
inactive: IGROV-1 75.2 µM | ACHN 44.1 µM | SK-MEL-2 48.9 µM | RXF 393 > 100 µM | SN12C 39.7 µM | LXFL 529 45.3 µM | SF-539 45.2 µM | HCC 2998 > 100 µM | Malme-3M 69 µM | TK-10 > 100 µM | HCT-116 44.3 µM | U-251 38.4 µM | NCI-H226 > 100 µM | UO-31 28.2 µM | 786-0 49 µM | UACC-62 46.2 µM | A498 > 100 µM | SK-MEL-5 35.2 µM | SF-268 55.7 µM

O=C1CCCCC1C1(O)C(=O)Nc2cc(F)ccc21 (configuration not stated)
inactive: IGROV-1 > 100 µM | ACHN > 100 µM | SK-MEL-2 > 100 µM | RXF 393 > 100 µM | SN12C > 100 µM | LXFL 529 > 100 µM | SF-539 > 100 µM | HCC 2998 > 100 µM | Malme-3M > 100 µM | TK-10 > 100 µM | HCT-116 > 100 µM | U-251 > 100 µM | NCI-H226 > 100 µM | UO-31 > 100 µM | 786-0 > 100 µM | UACC-62 > 100 µM | A498 > 100 µM | SK-MEL-5 > 100 µM | SF-268 > 100 µM

COc1cc2cc3c4c(cc(OC)c(OC)c4c2cc1OC)CCN3C(=O)OCCN1CCNCC1
inactive: IGROV-1 17.3 µM | ACHN 15.1 µM | SK-MEL-2 19.3 µM | RXF 393 14.4 µM | SN12C 15.9 µM | LXFL 529 15.1 µM | SF-539 15.1 µM | HCC 2998 16.1 µM | Malme-3M 17.3 µM | TK-10 15 µM | HCT-116 11.9 µM | U-251 15.3 µM | NCI-H226 14.4 µM | UO-31 14.9 µM | 786-0 11.6 µM | UACC-62 14.9 µM | A498 14.6 µM | SK-MEL-5 14.3 µM | SF-268 11.1 µM

CN/N=C(/CCN1CCCC1)CC(c1ccccc1)c1c(O)c2ccccc2oc1=O (configuration not stated)
inactive: IGROV-1 > 100 µM | ACHN > 100 µM | SK-MEL-2 > 100 µM | RXF 393 > 100 µM | SN12C > 100 µM | Hs-578T > 100 µM | LXFL 529 > 100 µM | SF-539 > 100 µM | HCC 2998 > 100 µM | Malme-3M 39.4 µM | TK-10 > 100 µM | HCT-116 > 100 µM | U-251 > 100 µM | NCI-H226 > 65.6 µM | UO-31 > 67.1 µM | 786-0 > 100 µM | UACC-62 > 100 µM | A498 > 100 µM | SK-MEL-5 > 75.5 µM | SF-268 > 100 µM

C=CN1C(=O)OC[C@@H]1c1ccccc1
inactive: IGROV-1 > 100 µM | ACHN > 100 µM | SK-MEL-2 > 100 µM | RXF 393 > 100 µM | SN12C > 100 µM | LXFL 529 > 100 µM | SF-539 > 100 µM | HCC 2998 > 100 µM | Malme-3M > 100 µM | TK-10 > 100 µM | HCT-116 83.2 µM | U-251 96.6 µM | NCI-H226 > 100 µM | UO-31 > 100 µM | 786-0 > 100 µM | UACC-62 > 100 µM | A498 > 100 µM | SK-MEL-5 > 100 µM | SF-268 > 100 µM

O=C1CC(S(=O)(=O)O)C=C1Nc1cccc(Cl)c1 (configuration not stated)
inactive: IGROV-1 > 100 µM | ACHN > 100 µM | SK-MEL-2 > 100 µM | RXF 393 > 100 µM | SN12C > 100 µM | LXFL 529 > 100 µM | SF-539 > 100 µM | HCC 2998 > 100 µM | Malme-3M > 100 µM | TK-10 > 100 µM | HCT-116 > 100 µM | U-251 > 100 µM | NCI-H226 > 100 µM | UO-31 > 100 µM | 786-0 > 100 µM | UACC-62 > 100 µM | A498 > 100 µM | SK-MEL-5 > 100 µM | SF-268 > 100 µM

CC(N)Cc1ccc(Cl)c(Cl)c1 (configuration not stated)
inactive: IGROV-1 51.6 µM | ACHN 26.8 µM | SK-MEL-2 19.4 µM | RXF 393 24.9 µM | SN12C 30.2 µM | LXFL 529 19.1 µM | SF-539 12.4 µM | HCC 2998 17.3 µM | Malme-3M 19.6 µM | TK-10 22.6 µM | HCT-116 35.1 µM | U-251 42.7 µM | NCI-H226 33.6 µM | UO-31 19.8 µM | 786-0 41.5 µM | UACC-62 22.8 µM | A498 45 µM | SK-MEL-5 16.6 µM | SF-268 71.8 µM
